Experimental data from patent US9051553B2, “Poly(ADP-ribose) polymerase genes” (AbbVie Deutschland GmbH & Co. KG, priority 1998, dated 2015).

Target: T1, PARP3 (Homo sapiens, UniProt Q9Y6F1)
T1 construct: made in house; host or cells: insect cells (Sf9 or High-Five), baculovirus, pFASTBAC-1
T1 sequence (Q9Y6F1 1-533): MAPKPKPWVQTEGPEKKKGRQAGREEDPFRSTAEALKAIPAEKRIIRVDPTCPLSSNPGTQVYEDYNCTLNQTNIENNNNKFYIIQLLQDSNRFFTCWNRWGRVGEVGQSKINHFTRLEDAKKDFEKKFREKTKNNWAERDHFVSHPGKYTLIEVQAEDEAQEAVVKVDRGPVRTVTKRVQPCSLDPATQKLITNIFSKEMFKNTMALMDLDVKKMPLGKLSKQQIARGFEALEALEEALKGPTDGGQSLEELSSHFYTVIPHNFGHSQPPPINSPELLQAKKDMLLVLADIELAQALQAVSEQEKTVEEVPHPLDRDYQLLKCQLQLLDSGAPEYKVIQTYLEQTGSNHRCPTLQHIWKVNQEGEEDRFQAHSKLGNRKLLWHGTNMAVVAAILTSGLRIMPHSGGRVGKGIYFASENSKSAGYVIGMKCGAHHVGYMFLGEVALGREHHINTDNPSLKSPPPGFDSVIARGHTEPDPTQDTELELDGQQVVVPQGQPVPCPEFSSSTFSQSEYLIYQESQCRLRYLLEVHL
Test: PARP inhibition assay, selectivity PARP2 versus PARP3
Type: biochemical
Settings: PARP2 compared with PARP3 as printed
Procedure: Assay Systems for Determining the Activity of PARP2 and PARP3 and the Inhibitory Action of Effectors on PARP1, PARP2 and PARP3
Various concentrations were used to construct a dose-effect plot to determine the Ki value of an inhibitor. Values are obtained in triplicate for a particular inhibitor concentration. Arithmetic means are determined using Microsoft© Excel. The IC50 is determined using the Microcal© Origin Software (Vers. 5.0) (“Sigmoidal Fit”). Conversion of the IC50 value is calculated in this way into Ki values took place by using “calibration inhibitors”.
The “calibration inhibitors” were also measured in each analysis. The Ki values of the “calibration inhibitors” were determined in the same assay system by analysis of the Dixon diagram in the manner familiar to the skilled worker.
Measurement was then possible after 30 minutes (up to 4 hours). The measurement took place in a “discovery HTRF microplate analyzer” (Canberra Packard Instruments). The Ki values were calculated as described for the ELISA.

## O=c1[nH]nc(CNc2ccc(O)cc2)c2ccccc12 [4-(N-(4-hydroxyphe-nyl)aminomethyl)-(2H)-dihydrophthalazine-1-one]
  selectivity for PARP2 over PARP3: eight times
